Source: the kinase profiling compilation of Christmann-Franck et al. (2016)

Key:
Experiment in all cases: KINOMEscan competition binding
Settings in all cases: compound 10.0 µM
FRK (human) = FRK (human) (UniProt P42685)
SIK2 (human) = SIK2 (human) (UniProt Q9H0K1)
TNNI3K (human) = TNNI3K (human) (UniProt Q59H18)
TSSK1B (human) = TSSK1B (human) (UniProt Q9BXA7)
CaMK1 (human) = CaMK1 (human) (UniProt Q14012)
MTOR (human) = MTOR (human) (UniProt P42345)
PRKD1 (human) = PRKD1 (human) (UniProt Q15139)
AURKB (human) = AURKB (human) (UniProt Q96GD4)
SGK110 (human) = SGK110 (human) (UniProt P0C264)
NEK5 (human) = NEK5 (human) (UniProt Q6P3R8)
PRKCE (human) = PRKCE (human) (UniProt Q02156)
RPS6KA5 KD1 (human) = RPS6KA5 KD1 (human) (UniProt O75582)
RPS6KA5 KD1 (human), sequence (O75582 whole entry, looked up): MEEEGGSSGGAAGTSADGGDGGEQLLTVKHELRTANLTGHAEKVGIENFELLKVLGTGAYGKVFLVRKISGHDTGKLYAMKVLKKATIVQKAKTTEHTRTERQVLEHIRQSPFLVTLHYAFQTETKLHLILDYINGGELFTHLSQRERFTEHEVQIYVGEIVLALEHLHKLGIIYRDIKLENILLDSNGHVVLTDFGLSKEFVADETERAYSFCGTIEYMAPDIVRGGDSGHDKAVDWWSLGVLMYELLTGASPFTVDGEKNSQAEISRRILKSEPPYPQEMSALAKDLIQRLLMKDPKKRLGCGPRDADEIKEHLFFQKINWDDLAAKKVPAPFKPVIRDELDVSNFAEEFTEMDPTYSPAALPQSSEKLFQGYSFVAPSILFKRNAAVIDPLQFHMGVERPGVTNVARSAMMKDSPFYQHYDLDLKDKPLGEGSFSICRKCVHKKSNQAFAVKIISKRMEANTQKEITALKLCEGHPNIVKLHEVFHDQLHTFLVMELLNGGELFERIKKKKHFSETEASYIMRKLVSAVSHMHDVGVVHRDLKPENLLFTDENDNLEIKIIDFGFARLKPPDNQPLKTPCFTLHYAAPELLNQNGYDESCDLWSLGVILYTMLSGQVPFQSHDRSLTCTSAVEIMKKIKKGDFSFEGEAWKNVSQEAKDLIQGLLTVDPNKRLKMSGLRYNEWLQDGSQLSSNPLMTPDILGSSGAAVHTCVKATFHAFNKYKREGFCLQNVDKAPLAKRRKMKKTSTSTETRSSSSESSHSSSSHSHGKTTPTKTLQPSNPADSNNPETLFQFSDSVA

TNK2 (human) = TNK2 (human) (UniProt Q07912)
[1] = system: EGFR (human), P00533 [A750P; 747-749 del]
STK24 (human) = STK24 (human) (UniProt Q9Y6E0)
PAK6 (human) = PAK6 (human) (UniProt Q9NQU5)
ICK (human) = ICK (human) (UniProt Q9UPZ9)
PIK3C2B (human) = PIK3C2B (human) (UniProt O00750)
TIE1 (human) = TIE1 (human) (UniProt P35590)
DAPK1 (human) = DAPK1 (human) (UniProt P53355)
DAPK1 (human), sequence (P53355 whole entry, looked up): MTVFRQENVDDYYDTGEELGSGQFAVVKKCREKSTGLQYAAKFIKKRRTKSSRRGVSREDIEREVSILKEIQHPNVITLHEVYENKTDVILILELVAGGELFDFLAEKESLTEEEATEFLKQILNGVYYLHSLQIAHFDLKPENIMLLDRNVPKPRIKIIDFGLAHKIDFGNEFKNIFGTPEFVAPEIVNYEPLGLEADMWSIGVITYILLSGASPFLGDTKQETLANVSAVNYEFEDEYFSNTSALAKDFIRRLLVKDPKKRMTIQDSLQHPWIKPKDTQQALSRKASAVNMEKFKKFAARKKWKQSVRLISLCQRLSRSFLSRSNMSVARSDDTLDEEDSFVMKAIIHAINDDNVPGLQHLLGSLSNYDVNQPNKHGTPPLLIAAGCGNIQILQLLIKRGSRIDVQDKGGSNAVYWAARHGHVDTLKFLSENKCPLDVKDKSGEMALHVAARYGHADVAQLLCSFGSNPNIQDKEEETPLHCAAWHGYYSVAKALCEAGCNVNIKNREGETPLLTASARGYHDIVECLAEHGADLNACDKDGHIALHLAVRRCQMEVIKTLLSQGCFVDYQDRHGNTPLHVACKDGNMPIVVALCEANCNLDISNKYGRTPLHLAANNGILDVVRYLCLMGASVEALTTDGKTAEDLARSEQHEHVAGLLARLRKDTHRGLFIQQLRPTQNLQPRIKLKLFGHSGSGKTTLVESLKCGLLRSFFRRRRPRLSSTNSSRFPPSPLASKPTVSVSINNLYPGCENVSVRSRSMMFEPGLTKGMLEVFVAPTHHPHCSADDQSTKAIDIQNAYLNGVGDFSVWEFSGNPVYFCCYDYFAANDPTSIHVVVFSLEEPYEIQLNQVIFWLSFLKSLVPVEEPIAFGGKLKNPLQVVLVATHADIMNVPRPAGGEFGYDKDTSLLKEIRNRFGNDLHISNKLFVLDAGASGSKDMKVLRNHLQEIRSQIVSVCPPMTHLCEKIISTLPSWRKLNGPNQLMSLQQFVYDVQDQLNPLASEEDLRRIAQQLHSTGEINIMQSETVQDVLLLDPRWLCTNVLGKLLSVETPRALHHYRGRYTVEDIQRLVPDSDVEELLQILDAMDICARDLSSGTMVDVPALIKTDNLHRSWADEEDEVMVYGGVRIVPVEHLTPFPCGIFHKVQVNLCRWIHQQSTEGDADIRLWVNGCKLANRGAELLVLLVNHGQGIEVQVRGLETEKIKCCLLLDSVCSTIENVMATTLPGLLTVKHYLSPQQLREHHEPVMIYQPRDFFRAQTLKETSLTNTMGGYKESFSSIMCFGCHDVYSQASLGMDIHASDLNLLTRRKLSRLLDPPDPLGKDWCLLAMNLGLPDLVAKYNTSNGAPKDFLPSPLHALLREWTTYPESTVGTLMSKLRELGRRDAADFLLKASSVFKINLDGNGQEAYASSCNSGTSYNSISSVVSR

RPS6KA6 KD1 (human) = RPS6KA6 KD1 (human) (UniProt Q9UK32)
CDK9 (human) = CDK9 (human) (UniProt P50750)
CDK9 (human), sequence (P50750 whole entry, looked up): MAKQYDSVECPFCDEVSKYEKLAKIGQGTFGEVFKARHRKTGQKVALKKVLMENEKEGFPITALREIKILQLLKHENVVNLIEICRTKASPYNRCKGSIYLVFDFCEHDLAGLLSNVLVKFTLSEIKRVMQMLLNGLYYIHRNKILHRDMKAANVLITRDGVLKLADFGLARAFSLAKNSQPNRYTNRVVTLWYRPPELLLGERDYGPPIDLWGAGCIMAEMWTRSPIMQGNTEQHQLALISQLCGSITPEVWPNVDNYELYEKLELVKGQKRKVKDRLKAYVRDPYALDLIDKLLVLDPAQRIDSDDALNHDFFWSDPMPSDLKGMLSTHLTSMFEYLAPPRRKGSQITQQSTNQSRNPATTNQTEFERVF

CHUK (human) = CHUK (human) (UniProt O15111)
PTK2 (human) = PTK2 (human) (UniProt Q05397)
RIPK4 (human) = RIPK4 (human) (UniProt P57078)
MAP3K9 (human) = MAP3K9 (human) (UniProt P80192)
PAK3 (human) = PAK3 (human) (UniProt O75914)
SRPK2 (human) = SRPK2 (human) (UniProt P78362)
CDK16 (human) = CDK16 (human) (UniProt Q00536)
MAP3K13 (human) = MAP3K13 (human) (UniProt O43283)
MAPK12 (human) = MAPK12 (human) (UniProt P53778)
MAP3K7 (human) = MAP3K7 (human) (UniProt O43318)
EPHA7 (human) = EPHA7 (human) (UniProt Q15375)
MAPK6 (human) = MAPK6 (human) (UniProt Q16659)
FLT4 (human) = FLT4 (human) (UniProt P35916)
FLT4 (human), sequence (P35916 whole entry, looked up): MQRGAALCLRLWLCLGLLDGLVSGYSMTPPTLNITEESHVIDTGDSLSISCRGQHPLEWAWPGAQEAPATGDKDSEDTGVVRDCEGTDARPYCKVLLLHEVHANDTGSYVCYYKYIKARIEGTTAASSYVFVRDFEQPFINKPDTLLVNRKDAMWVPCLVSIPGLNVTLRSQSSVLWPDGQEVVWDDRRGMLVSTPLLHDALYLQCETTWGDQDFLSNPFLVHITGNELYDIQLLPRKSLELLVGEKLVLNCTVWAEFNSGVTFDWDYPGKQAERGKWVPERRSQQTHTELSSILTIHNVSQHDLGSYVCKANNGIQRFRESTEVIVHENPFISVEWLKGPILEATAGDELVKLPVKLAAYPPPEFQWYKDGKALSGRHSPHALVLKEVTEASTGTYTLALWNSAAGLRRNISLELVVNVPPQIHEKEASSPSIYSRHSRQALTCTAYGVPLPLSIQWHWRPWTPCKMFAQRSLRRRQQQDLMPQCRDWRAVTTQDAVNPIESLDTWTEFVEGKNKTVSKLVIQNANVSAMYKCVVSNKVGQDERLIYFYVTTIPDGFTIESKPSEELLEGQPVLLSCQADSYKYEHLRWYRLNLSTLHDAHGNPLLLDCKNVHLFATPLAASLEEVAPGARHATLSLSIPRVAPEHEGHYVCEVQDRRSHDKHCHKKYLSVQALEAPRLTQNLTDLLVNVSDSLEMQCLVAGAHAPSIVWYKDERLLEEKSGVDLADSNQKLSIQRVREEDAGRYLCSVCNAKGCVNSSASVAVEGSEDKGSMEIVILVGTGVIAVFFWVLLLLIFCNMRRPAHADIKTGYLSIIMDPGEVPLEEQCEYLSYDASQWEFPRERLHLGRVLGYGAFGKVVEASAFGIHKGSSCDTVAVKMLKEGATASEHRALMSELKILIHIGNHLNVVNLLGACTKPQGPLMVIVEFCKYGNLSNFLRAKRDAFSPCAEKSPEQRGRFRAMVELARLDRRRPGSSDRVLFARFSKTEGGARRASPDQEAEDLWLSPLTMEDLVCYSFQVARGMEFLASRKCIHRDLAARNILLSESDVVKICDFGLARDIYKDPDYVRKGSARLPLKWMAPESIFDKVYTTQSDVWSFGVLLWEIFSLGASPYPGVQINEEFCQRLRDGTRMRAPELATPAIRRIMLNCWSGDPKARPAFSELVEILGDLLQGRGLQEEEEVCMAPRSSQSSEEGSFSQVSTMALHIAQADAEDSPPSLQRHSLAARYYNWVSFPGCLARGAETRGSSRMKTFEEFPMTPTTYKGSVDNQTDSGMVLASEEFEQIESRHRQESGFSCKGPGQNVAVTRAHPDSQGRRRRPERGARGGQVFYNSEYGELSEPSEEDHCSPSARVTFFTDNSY

CSNK2A1 (human) = CSNK2A1 (human) (UniProt P68400)
PIK3CB (human) = PIK3CB (human) (UniProt P42338)
PRPF4B (human) = PRPF4B (human) (UniProt Q13523)
PRPF4B (human), sequence (Q13523 whole entry, looked up): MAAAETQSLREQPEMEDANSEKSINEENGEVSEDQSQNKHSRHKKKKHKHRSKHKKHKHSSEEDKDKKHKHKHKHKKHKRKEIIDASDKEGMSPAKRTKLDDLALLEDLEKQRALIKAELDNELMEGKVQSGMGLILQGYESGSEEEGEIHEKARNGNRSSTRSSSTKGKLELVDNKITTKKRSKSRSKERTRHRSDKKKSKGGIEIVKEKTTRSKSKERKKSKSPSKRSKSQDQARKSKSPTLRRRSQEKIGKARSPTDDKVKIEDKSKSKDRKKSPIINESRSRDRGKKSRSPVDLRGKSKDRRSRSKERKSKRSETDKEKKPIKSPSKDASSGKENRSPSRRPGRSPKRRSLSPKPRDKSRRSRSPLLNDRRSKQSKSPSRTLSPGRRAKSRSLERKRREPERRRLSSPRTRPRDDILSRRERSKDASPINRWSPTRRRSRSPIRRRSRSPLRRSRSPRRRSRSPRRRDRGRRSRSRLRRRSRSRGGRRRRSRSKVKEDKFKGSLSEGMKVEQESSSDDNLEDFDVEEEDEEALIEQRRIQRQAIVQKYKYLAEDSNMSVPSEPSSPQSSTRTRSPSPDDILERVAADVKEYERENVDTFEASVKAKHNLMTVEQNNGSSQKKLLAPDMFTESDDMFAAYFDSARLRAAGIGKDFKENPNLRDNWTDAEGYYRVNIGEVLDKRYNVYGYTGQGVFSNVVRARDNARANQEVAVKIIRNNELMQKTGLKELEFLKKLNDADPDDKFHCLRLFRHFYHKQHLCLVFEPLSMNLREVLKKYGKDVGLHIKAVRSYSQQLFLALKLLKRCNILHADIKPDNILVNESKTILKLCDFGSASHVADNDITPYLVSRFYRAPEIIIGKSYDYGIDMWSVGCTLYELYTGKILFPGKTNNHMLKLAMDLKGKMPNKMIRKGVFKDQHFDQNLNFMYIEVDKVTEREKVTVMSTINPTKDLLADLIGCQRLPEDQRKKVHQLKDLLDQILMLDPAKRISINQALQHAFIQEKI

IRAK4 (human) = IRAK4 (human) (UniProt Q9NWZ3)
STK32C (human) = STK32C (human) (UniProt Q86UX6)

SMILES | kinase still bound, per cent of control (FRK (human)) [%] | kinase still bound, per cent of control (SIK2 (human)) [%] | kinase still bound, per cent of control (TNNI3K (human)) [%] | kinase still bound, per cent of control (TSSK1B (human)) [%] | kinase still bound, per cent of control (CaMK1 (human)) [%] | kinase still bound, per cent of control (MTOR (human)) [%] | kinase still bound, per cent of control (PRKD1 (human)) [%] | kinase still bound, per cent of control (AURKB (human)) [%] | kinase still bound, per cent of control (SGK110 (human)) [%] | kinase still bound, per cent of control (NEK5 (human)) [%] | kinase still bound, per cent of control (PRKCE (human)) [%] | kinase still bound, per cent of control (RPS6KA5 KD1 (human)) [%] | kinase still bound, per cent of control (TNK2 (human)) [%] | kinase still bound, per cent of control [1] [%] | kinase still bound, per cent of control (STK24 (human)) [%] | kinase still bound, per cent of control (PAK6 (human)) [%] | kinase still bound, per cent of control (ICK (human)) [%] | kinase still bound, per cent of control (PIK3C2B (human)) [%] | kinase still bound, per cent of control (TIE1 (human)) [%] | kinase still bound, per cent of control (DAPK1 (human)) [%] | further results
COc1cc2ncnc(Nc3cccc(Cl)c3)c2cc1OC | 29 | 67 | 38 | 100 | 81 | 83 | 89 | 40 | 65 | 93 | 75 | 100 | 61 | 1.4 | 87 | 94 | 100 | 7.6 | 71 | 53 | kinase still bound, per cent of control (RPS6KA6 KD1 (human)): 46%; kinase still bound, per cent of control (CDK9 (human)): 100%; kinase still bound, per cent of control (CHUK (human)): 72%; kinase still bound, per cent of control (PTK2 (human)): 100%; kinase still bound, per cent of control (RIPK4 (human)): 43%; kinase still bound, per cent of control (MAP3K9 (human)): 86%; kinase still bound, per cent of control (PAK3 (human)): 25%; kinase still bound, per cent of control (SRPK2 (human)): 62%; kinase still bound, per cent of control (CDK16 (human)): 90%; kinase still bound, per cent of control (MAP3K13 (human)): 100%; kinase still bound, per cent of control (MAPK12 (human)): 100%; kinase still bound, per cent of control (MAP3K7 (human)): 39%; kinase still bound, per cent of control (EPHA7 (human)): 46%; kinase still bound, per cent of control (MAPK6 (human)): 33%; kinase still bound, per cent of control (FLT4 (human)): 79%; kinase still bound, per cent of control (CSNK2A1 (human)): 19%; kinase still bound, per cent of control (PIK3CB (human)): 47%; kinase still bound, per cent of control (PRPF4B (human)): 84%; kinase still bound, per cent of control (IRAK4 (human)): 8.9%; kinase still bound, per cent of control (STK32C (human)): 100%
C=CC(=O)Nc1ccc(C(=O)c2sc(Nc3ccc(N4CCN(C)CC4)cc3OC)nc2N)cc1 | 48 | 72 | 89 | 44 | 8.2 | 90 | 39 | 62 | 100 | 100 | 81 | 100 | 82 | 61 | 71 | 40 | 32 | 100 | 67 | 9.4 | kinase still bound, per cent of control (RPS6KA6 KD1 (human)): 50%; kinase still bound, per cent of control (CDK9 (human)): 85%; kinase still bound, per cent of control (CHUK (human)): 59%; kinase still bound, per cent of control (PTK2 (human)): 51%; kinase still bound, per cent of control (RIPK4 (human)): 89%; kinase still bound, per cent of control (MAP3K9 (human)): 93%; kinase still bound, per cent of control (PAK3 (human)): 100%; kinase still bound, per cent of control (SRPK2 (human)): 95%; kinase still bound, per cent of control (CDK16 (human)): 67%; kinase still bound, per cent of control (MAP3K13 (human)): 100%; kinase still bound, per cent of control (MAPK12 (human)): 100%; kinase still bound, per cent of control (MAP3K7 (human)): 73%; kinase still bound, per cent of control (EPHA7 (human)): 95%; kinase still bound, per cent of control (MAPK6 (human)): 90%; kinase still bound, per cent of control (FLT4 (human)): 100%; kinase still bound, per cent of control (CSNK2A1 (human)): 14%; kinase still bound, per cent of control (PIK3CB (human)): 86%; kinase still bound, per cent of control (PRPF4B (human)): 100%; kinase still bound, per cent of control (IRAK4 (human)): 92%; kinase still bound, per cent of control (STK32C (human)): 84%
N#Cc1cc(-c2ccnc(Nc3ccc(-n4cnc(-c5cccnc5)n4)cc3)n2)cc(N2CCOCC2)c1 | 92 | 33 | 80 | 100 | 83 | 100 | 66 | 57 | 78 | 1.4 | 100 | 100 | 61 | 62 | 70 | 58 | 2.6 | 76 | 30 | 60 | kinase still bound, per cent of control (RPS6KA6 KD1 (human)): 60%; kinase still bound, per cent of control (CDK9 (human)): 2.1%; kinase still bound, per cent of control (CHUK (human)): 55%; kinase still bound, per cent of control (PTK2 (human)): 77%; kinase still bound, per cent of control (RIPK4 (human)): 53%; kinase still bound, per cent of control (MAP3K9 (human)): 22%; kinase still bound, per cent of control (PAK3 (human)): 100%; kinase still bound, per cent of control (SRPK2 (human)): 34%; kinase still bound, per cent of control (CDK16 (human)): 6.8%; kinase still bound, per cent of control (MAP3K13 (human)): 100%; kinase still bound, per cent of control (MAPK12 (human)): 80%; kinase still bound, per cent of control (MAP3K7 (human)): 15%; kinase still bound, per cent of control (EPHA7 (human)): 85%; kinase still bound, per cent of control (MAPK6 (human)): 0.95%; kinase still bound, per cent of control (FLT4 (human)): 84%; kinase still bound, per cent of control (CSNK2A1 (human)): 2.2%; kinase still bound, per cent of control (PIK3CB (human)): 100%; kinase still bound, per cent of control (PRPF4B (human)): 57%; kinase still bound, per cent of control (IRAK4 (human)): 100%; kinase still bound, per cent of control (STK32C (human)): 89%
